One compound from ChEMBL document CHEMBL5316291 (J Med Chem, 2023) can be followed below.

SMILES strings stand for the structures. Activity calls are given as the source filed them. No cut-off for these calls is given here.

In data set [1] the target is T1, Protein mono-ADP-ribosyltransferase TIPARP (Mus musculus) (UniProt Q8C1B2).
T1 sequence (whole entry): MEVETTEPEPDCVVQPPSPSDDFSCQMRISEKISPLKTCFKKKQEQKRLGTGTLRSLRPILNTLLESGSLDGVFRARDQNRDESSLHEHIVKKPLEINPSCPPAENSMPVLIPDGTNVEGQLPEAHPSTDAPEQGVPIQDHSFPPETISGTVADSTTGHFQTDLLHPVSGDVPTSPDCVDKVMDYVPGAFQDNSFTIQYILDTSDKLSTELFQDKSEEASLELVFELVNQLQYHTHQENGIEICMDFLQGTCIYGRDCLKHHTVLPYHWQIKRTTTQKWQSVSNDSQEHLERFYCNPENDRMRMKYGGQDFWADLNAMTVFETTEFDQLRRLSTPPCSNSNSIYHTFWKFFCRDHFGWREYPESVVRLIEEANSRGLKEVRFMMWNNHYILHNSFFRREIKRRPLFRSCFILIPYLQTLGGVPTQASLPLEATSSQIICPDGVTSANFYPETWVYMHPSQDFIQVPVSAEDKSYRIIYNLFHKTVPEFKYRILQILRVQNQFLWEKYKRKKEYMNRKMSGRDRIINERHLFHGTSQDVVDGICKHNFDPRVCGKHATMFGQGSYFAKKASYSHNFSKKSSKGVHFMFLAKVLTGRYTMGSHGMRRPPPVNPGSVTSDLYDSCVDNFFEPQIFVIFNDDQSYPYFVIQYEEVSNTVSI
Nature of the data set: Inhibition of PARP7 in mouse CT26 cells assessed as increase in IFN-beta levels at 49 to 4000 nmol/L measured after 48 hrs by RT-qPCR analysis. To be noted: dose lower […], dose upper 4000.0 nmol/L. The data set is classed as cell-based. In general terms: Real-time PCR tracks product formation cycle by cycle.

Data set [2] has as its target T2, Protein mono-ADP-ribosyltransferase TIPARP (Homo sapiens, UniProt Q7Z3E1).
T2 sequence (Q7Z3E1 whole entry): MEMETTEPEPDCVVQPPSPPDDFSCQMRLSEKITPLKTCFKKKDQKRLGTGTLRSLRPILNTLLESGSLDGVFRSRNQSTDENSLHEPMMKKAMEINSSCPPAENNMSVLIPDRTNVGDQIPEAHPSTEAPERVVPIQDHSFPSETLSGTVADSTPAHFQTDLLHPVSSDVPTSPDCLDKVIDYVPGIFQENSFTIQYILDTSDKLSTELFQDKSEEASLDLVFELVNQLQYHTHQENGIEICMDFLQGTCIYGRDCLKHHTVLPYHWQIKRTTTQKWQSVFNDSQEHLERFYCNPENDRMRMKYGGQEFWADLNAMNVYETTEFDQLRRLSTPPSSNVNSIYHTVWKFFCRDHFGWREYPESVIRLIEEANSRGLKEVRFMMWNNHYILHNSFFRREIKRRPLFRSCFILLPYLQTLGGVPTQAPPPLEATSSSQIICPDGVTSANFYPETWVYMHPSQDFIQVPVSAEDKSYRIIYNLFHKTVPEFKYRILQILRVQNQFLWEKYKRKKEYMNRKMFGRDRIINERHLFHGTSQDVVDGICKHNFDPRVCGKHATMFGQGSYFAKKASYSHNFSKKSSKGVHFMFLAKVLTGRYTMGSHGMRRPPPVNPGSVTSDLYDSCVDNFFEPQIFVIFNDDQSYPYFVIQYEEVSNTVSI
Description: Inhibition of human recombinant N-terminal FLAG-tagged PARP7 (400 to 657 end residues) incubated for 1 hr by ELISA assay. For orientation: In an ELISA, binding on a coated surface is turned into a signal by an enzyme label.

Data set [3] can be described thus: Toxicity in BALB/c mouse implanted with mouse CT26 cells assessed as liver damage at 100 mg/kg, po measured for 14 days by hematoxylin and eosin staining based fluorescence microscopic analysis. The data set is classed as organism-based. To be noted: in vivo, 336 h, time 14 day.
Data set [4] can be described thus: Apparent volume of distribution in ICR mouse at 1 mg/kg, iv measured upto 24 hrs by LC-MS/MS analysis. The data set is classed as ADME, organism-based. Particulars: in vivo, read-out: Vz.
Data set [5] relates to CT26. Description: Antitumor activity against mouse CT26 cells implanted in po dosed BALB/c mouse assessed as increase in CXCL10 levels at 100 mg/kg measured after 14 days by RT-qPCR analysis. Particulars: time 14.0 day. The data set is classed as functional, organism-based.
Data set [6] in a line: MRT(0 to infinity) in ICR mouse at 1 mg/kg, iv measured upto 24 hrs by LC-MS/MS analysis. Particulars: in vivo. Format: ADME, organism-based.
In data set [7] the target is Poly [ADP-ribose] polymerase 1 (Homo sapiens, UniProt P09874). Description: Inhibition of human recombinant N-terminal GST-tagged PARP1 (2 to 1014 end residues) incubated for 1 hr by ELISA assay.
A short description of data set [8]: Clearance in ICR mouse at 1 mg/kg, iv measured upto 24 hrs by LC-MS/MS analysis. Format: ADME, organism-based. To be noted: in vivo.
Data set [9] concerns CT26. Description: cells. Particulars: Mus musculus, CT26, 144 h.
The nature of data set [10]: Toxicity in BALB/c mouse implanted with mouse CT26 cells assessed as change in body weight at 25 to 100 mg/kg, po measured for 14 days. The data set is classed as organism-based. Particulars: in vivo, 336 h, dose 25-100 mg/kg, time 14 day.
Data set [11] relates to CT26. Description: cells. To be noted: Mus musculus, CT26, 144 h. The source holds these as a separate data set.
Data set [12] relates to NCI-H1373. Description: cells. Particulars: Homo sapiens, NCI-H1373, 144 h.

In general, IC50 refers to the midpoint of a concentration-inhibition curve. One may read the MRT inf as a mean duration of stay, worked out from the concentration-time curve. Broadly, the clearance is a measure of how efficiently the substance is removed, as volume per time. A low value points to inefficient removal.

Chain of Poly [ADP-ribose] polymerase 1 (P09874 whole entry): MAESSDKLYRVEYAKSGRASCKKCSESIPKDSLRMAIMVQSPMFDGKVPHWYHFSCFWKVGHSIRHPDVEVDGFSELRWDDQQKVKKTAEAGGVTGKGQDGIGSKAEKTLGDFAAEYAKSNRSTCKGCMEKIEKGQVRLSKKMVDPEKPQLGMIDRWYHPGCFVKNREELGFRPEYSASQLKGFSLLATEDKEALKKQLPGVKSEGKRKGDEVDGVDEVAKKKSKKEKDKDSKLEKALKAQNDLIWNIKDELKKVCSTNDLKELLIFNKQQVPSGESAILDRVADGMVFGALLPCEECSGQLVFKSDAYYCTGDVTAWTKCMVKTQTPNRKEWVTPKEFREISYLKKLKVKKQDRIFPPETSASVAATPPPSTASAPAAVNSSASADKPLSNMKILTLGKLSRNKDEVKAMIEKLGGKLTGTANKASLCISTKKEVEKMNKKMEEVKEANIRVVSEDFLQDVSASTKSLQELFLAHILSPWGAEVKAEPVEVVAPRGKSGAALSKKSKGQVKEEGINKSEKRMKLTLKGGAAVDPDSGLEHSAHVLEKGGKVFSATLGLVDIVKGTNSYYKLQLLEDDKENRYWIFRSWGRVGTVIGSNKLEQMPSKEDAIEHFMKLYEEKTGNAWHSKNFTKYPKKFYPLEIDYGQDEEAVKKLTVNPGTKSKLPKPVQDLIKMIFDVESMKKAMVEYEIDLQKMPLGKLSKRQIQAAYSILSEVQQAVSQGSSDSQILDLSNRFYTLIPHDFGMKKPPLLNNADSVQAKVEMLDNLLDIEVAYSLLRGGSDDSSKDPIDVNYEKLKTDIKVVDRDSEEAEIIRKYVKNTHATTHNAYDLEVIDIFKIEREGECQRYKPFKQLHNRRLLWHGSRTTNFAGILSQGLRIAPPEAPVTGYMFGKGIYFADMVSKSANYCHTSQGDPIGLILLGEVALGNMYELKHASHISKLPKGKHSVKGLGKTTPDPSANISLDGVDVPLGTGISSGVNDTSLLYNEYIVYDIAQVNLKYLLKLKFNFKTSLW

Take `C[C@@H](CN1CC(C(=O)N2CCN(c3ncc(C(F)(F)F)cn3)CC2)C1)Nc1cn[nH]c(=O)c1C(F)(F)F`: the inhibition entry in data set [1] is “Active”. Further, the half-inhibitory concentration (IC50) in data set [2] was 0.0076 µM; in data set [7] it was more than 5 µM; in data set [9] it was 19.5 µM; in data set [11] it was 12.8 µM; in [12], 1.09 µM. Moreover, the Activity entry in data set [3] and in data set [10] was “Non-Toxic” in each case. The Vd in data set [4] was 3.66 L/kg. In addition, the outcome in [5] was Active. In addition, the MRT inf in data set [6] was found to be 1.68 h. The same compound gave a clearance in data set [8] of 29 mL/min/kg.
